Measured values taken from ChEMBL document CHEMBL1201862, “PubChem BioAssay data set” (2004).
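Assay format: 96-well plates, 48-hour exposure. GI50 = concentration required for 50% inhibition of growth.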 Calls of active or inactive are those of the source. Cut-off read from the data, not from the text of the source: active = GI50 up to about 1.1 µM and inactive = higher.

Experiments:
Test in all cases: inhibition of tumour cell growth, NCI panel, 48 h
SK-MEL-5 = test system: SK-MEL-5
K562 = test system: K562
ACHN = test system: ACHN
SNB-19 = test system: SNB-19
HL-60 = test system: HL-60
A549 = test system: A549
CAKI-1 = test system: CAKI-1
A498 = test system: A498
RPMI-8226 = test system: RPMI-8226
LOX IMVI = test system: LOX IMVI
SK-MEL-2 = test system: SK-MEL-2
UO-31 = test system: UO-31
IGROV-1 = test system: IGROV-1
Malme-3M = test system: Malme-3M
SF-539 = test system: SF-539
U-251 = test system: U-251
NCI-H522 = test system: NCI-H522
SK-MEL-28 = test system: SK-MEL-28
NCI-H226 = test system: NCI-H226

Measured: GI50

CN1CCc2c1nc(-c1cccnc1)c1c2N(C)CC1
inactive: SK-MEL-5 > 100 µM | K562 > 100 µM | ACHN > 100 µM | SNB-19 > 100 µM | HL-60 > 100 µM | A549 > 100 µM | CAKI-1 > 100 µM | A498 52 µM | RPMI-8226 > 100 µM | LOX IMVI > 100 µM | SK-MEL-2 > 100 µM | UO-31 48.8 µM | IGROV-1 > 100 µM | Malme-3M > 100 µM | SF-539 > 100 µM | U-251 > 100 µM

Cc1ccccc1C1=C(C(=O)Nc2ccc(Cl)c(Cl)c2)NC(=S)NC1N (stereo not given)
inactive: SK-MEL-5 > 100 µM | K562 > 100 µM | ACHN > 100 µM | SNB-19 > 100 µM | A549 > 100 µM | CAKI-1 > 100 µM | A498 > 100 µM | RPMI-8226 > 100 µM | NCI-H522 > 100 µM | LOX IMVI > 100 µM | SK-MEL-2 > 100 µM | UO-31 > 100 µM | IGROV-1 > 100 µM | SK-MEL-28 > 100 µM | Malme-3M > 100 µM | SF-539 > 100 µM | U-251 > 100 µM

CC(=O)OCC1OC(OC(C)=O)C(NC#N)C(OC(C)=O)C1OC(C)=O (stereo not given)
inactive: SK-MEL-5 73.1 µM | K562 > 100 µM | ACHN 49.7 µM | SNB-19 > 100 µM | HL-60 > 100 µM | A549 > 100 µM | CAKI-1 > 100 µM | A498 > 100 µM | RPMI-8226 67.8 µM | NCI-H522 > 100 µM | LOX IMVI 39.2 µM | SK-MEL-2 50.7 µM | UO-31 36.1 µM | IGROV-1 > 100 µM | SK-MEL-28 > 100 µM | Malme-3M > 100 µM | SF-539 > 100 µM | U-251 > 100 µM

O=c1c(Cc2ccccc2)c(O)cc2n1CCC2
inactive: SK-MEL-5 > 100 µM | K562 > 100 µM | NCI-H226 > 100 µM | ACHN > 100 µM | SNB-19 > 100 µM | A549 > 100 µM | CAKI-1 > 100 µM | A498 > 100 µM | RPMI-8226 > 100 µM | NCI-H522 > 100 µM | LOX IMVI > 100 µM | UO-31 > 100 µM | IGROV-1 > 100 µM | SK-MEL-28 > 100 µM | Malme-3M > 100 µM | SF-539 > 100 µM | U-251 > 100 µM

C[N+]1(C)CCCC(C#N)(c2ccccc2)CC1 (stereo not given)
inactive: SK-MEL-5 > 100 µM | K562 > 100 µM | ACHN > 100 µM | SNB-19 > 100 µM | HL-60 > 100 µM | A549 > 100 µM | CAKI-1 > 100 µM | A498 > 100 µM | RPMI-8226 > 100 µM | UO-31 > 100 µM | IGROV-1 > 100 µM | SK-MEL-28 > 100 µM | Malme-3M > 100 µM | U-251 > 100 µM

Cn1cnc([N+](=O)[O-])c1Sc1ccccn1
inactive: SK-MEL-5 > 100 µM | K562 > 100 µM | NCI-H226 > 100 µM | ACHN > 100 µM | SNB-19 > 100 µM | A549 > 100 µM | CAKI-1 > 100 µM | A498 > 100 µM | RPMI-8226 > 100 µM | NCI-H522 74.3 µM | LOX IMVI > 100 µM | SK-MEL-2 74.6 µM | UO-31 87.1 µM | IGROV-1 > 100 µM | SK-MEL-28 > 100 µM | Malme-3M 68.4 µM | SF-539 > 100 µM | U-251 > 100 µM
